Values of other authors in patent publication US20050112193A1, “Immediate-release formulations of acid-labile pharmaceutical compositions” (priority 2003, published 2005).
Like-named read-outs stand apart in the source and are kept apart here.

Columns and labels:
[1] = for time to undergo 50% degradation: acidic stomach / gastric environment, pH of 1.2 given for pantoprazole sodium and rabeprazole sodium
[2] = in water

time to undergo 50% degradation [1] | time for 50% of drug to be degraded (t ½) ([1]; pH 1.2) | time for 50% of drug to be degraded (t ½) ([1]; pH 5.1) | time for 50% of drug to be degraded (t ½) ([1]; pH 6) | time for 50% of drug to be degraded (t ½) ([1]; pH 7) | pKa | Solubility ([2]; listed as Omeprazole base) | Solubility [2] | Solubility ([2]; listed as Lansoprazole base) | time for 50% of drug to be degraded (t ½) ([1]; pH 5) | SMILES
less than 3 minutes | 0.0467 h | 1.4 h | 7.3 h | 39 h | 3.9 | slightly soluble | – | – | – | COc1ccc2[nH]c([S+]([O-])Cc3ncc(C)c(OC)c3C)nc2c1 (stereo not drawn) [Omeprazole, 5-methoxy-2-[[(4-methoxy-3,5-dimethyl-2-pyridinyl)methyl]sulfinyl]-1H-benzimidazole]
less than 1.5 minutes | 0.0217 h | 0.12 h | – | – | 4.9 | – | Very soluble | – | – | COCCCOc1ccnc(C[S+]([O-])c2nc3ccccc3[nH]2)c1C (stereo not drawn) [Rabeprazole sodium]
2 min | 0.0333 h | 1.5 h | 6.4 h | 35 h | 4.1 | – | – | very slightly soluble | – | Cc1c(OCC(F)(F)F)ccnc1C[S+]([O-])c1nc2ccccc2[nH]1 (stereo not drawn) [Lansoprazole]
less than 5 minutes | 0.0767 h | 4.7 h | 21 h | 73 h | 3 | – | very soluble | – | 2.8 h | COc1ccnc(C[S+]([O-])c2nc3ccc(OC(F)F)cc3[nH]2)c1OC (stereo not drawn) [Pantoprazole sodium]
